Measurements published in US11221334B2, “Method for determining breast cancer treatment” (THE REGENTS OF THE UNIVERSITY OF COLORADO, A BODY CORPORATE, priority 2012, dated 2022).

Tests used:
[1] = tested on: AR-dependent MMTV-luciferase reporter; assay: Luciferase assay in MDA-kb2 cells; type: cell-based, human; conditions: Enza 10, 1, 0.1 μM, DHT, 24 h
Description: Luciferase Assays. MDA-kb2 cells were plated at 5×10^3 cells/well in 96-well luminescence plates and incubated overnight. Cells were treated with 10-fold serial dilutions of Enza (10, 1, 0.1 μM) and DHT (10, 1, 0.1, 0.01, 0.001 nM) that were prepared in DMSO. Following 24 h of incubation, the luminescence levels were determined with the luciferase assay system (Promega). Three independent experiments were performed and the luminescence values were determined as relative units (R.U.) and normalized to vehicle. Values were expressed as the mean fold induction±standard error (SE).

ERα = target: T1, ERα (Homo sapiens, UniProt P03372); assay: Radioligand binding assay, [3H] Estradiol displacement; conditions: 0.5 nM [3H] Estradiol; 0.1 μM to 100 μM
T1 construct: purchased Ricera Biosciences, LLC (contract assay)
T1 sequence (P03372 1-595): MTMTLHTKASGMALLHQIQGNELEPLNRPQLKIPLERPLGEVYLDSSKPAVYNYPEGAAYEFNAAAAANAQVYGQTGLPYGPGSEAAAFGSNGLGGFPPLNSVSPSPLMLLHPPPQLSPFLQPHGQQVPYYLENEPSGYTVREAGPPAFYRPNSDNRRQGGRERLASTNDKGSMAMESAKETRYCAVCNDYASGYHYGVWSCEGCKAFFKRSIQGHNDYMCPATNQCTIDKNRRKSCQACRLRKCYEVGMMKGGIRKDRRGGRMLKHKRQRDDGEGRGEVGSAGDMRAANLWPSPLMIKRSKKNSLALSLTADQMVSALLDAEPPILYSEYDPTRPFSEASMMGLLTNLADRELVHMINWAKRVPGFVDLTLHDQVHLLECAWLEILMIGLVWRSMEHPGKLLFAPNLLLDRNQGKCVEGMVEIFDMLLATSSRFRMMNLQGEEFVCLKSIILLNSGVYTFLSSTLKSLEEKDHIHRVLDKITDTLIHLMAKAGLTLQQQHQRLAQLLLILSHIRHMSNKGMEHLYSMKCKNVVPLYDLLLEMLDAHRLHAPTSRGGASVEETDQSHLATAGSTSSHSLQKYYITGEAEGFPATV

MCF7-TGL cells = conditions: for decrease in whole body luminescence: day 11
Description: Tumor studies. […] Briefly, 10^6 MCF7-TGL cells stably expressing a triple fusion of thymidine kinase, GLP and luciferase (SFG-NES-TGL retroviral vector) for IVIS imaging purposes were mixed with Matrigel (BD Biosciences) and injected into the fourth inguinal mammary fat pad of female, ovariectomized athymic nu/nu or non-obese diabetic (NOD)/SCID mice (Taconic). At time of tumor injection, E2 pellets (60-day release, 1.5 mg/pellet, Innovative Research of America) or DHT (8 mg/pellet, packed and sealed in silastic tubing) were implanted subcutaneously (SQ) at the back of the neck. Tumor burden was assessed using in vivo imaging system (IVIS) or caliper measurements. Once the tumors had established, the mice were matched into groups on the basis of total tumor burden as measured by IVIS or caliper. […] The feed was irradiated and stored at 4° C. before use. […] All mice were given free access to MDV3100 mixed with chow or control chow during the entire study period and at an average of 3.5 g/day food intake. Feed was changed in the animal cages twice a week. Water and feed were prepared ad libitum. Two hours prior to sacrifice, mice were injected IP with 50 mg/kg BrDU (Sigma-Aldrich). Mice were euthanized by CO2 asphyxiation followed by cervical dislocation and blood, tumors, colon, uteri and mammary glands were harvested.
Immunohistochemistry. Slides were deparaffinized in a series of xylenes and ethanols and antigens were heat retrieved in either 10 mM citrate buffer pH 6.0 (BrdU, Ki67) or 10 mM Tris/1 mM EDTA buffer at pH 9.0 (AR, ER, caspase 3). Tissue for BrdU was incubated in 2N HCl followed by 0.1M sodium borate following antigen retrieval. […] Envision-HRP (Dakocytomation) was used for antibody detection. TUNEL staining for apoptosis was performed using the ApopTag Plus Peroxidase In Situ Apoptosis Detection Kit (Millipore), as per manufacturer's instructions. […] For BrdU and TUNEL staining in xenograft studies, three separate 200× fields of each xenograft tumor were taken using an Olympus BX40 microscope (Center Valley, Pa.) with a SPOT Insight Mosaic 4.2 camera and software (Diagnostic Instruments, Inc., Sterling Heights, Mich.). A color threshold (RGB for positive staining nuclei, and HSB for total nuclei) was adjusted manually using ImageJ (National Institutes of Health) for each image, and particles created by the thresholds were analyzed for total area. RGB area was divided by HSB area and multiplied by 100 for each image. For analysis of the nuclear androgen receptor, cleaved caspase 3 and Ki67, slides were scanned at 20× on an Aperio Scan ScanScope XT. Mammary tumor tissue was traced separately for each tumor and necrotic areas of the tumor removed using a negative pen tool in Aperio's Scanscope software. A Nuclear Algorithm was utilized to measure the percent positive cells for the Ki-67 and Androgen Receptor stained slides and the data exported. Cleaved Caspase 3 stained slides were analyzed using a modified Positive Pixel Count algorithm.

ERβ = target: T2, ERβ (Homo sapiens, UniProt Q92731); assay: Radioligand binding assay, [3H] Estradiol displacement; conditions: 0.5 nM [3H] Estradiol; 0.1 μM to 100 μM
T2 construct: purchased Ricera Biosciences, LLC (contract assay)

PR, SDF-1 = assay: qPCR of estrogen responsive genes PR and SDF-1; type: cell-based
Description: For FASN, PRLR and GCDFP-15, SYBR green quantitative gene expression analysis was performed using the following primers: FASN [NT] ID NO: 1), FASN […] ID NO: 2); PRLR [NT] ID NO: 3), PRLR […] ID NO: 4); […] ID NO: 5), […] ID NO: 6); 18[…] ID NO: 7), 18[…] ID NO: 8). For PR and SDF-1, taqman real time PCR was performed using validated primer/probe sets from Applied Biosystems (assay IDs: PR Hs01556702_ml, SDF-1 Hs00171022 ml, 18S Hs99999901_sl). Relative gene expression was calculated using the comparative Ct method and values were normalized to 18S.

breast cancer = assay: Tamoxifen study: adjuvant tamoxifen cohort, Kaplan-Meier by AR:ER ratio; type: in vivo, female patients
[2] = E2 pellet, chow 50 mg/kg enzalutamide or tamoxifen pellet

T2 sequence (Q92731 whole entry): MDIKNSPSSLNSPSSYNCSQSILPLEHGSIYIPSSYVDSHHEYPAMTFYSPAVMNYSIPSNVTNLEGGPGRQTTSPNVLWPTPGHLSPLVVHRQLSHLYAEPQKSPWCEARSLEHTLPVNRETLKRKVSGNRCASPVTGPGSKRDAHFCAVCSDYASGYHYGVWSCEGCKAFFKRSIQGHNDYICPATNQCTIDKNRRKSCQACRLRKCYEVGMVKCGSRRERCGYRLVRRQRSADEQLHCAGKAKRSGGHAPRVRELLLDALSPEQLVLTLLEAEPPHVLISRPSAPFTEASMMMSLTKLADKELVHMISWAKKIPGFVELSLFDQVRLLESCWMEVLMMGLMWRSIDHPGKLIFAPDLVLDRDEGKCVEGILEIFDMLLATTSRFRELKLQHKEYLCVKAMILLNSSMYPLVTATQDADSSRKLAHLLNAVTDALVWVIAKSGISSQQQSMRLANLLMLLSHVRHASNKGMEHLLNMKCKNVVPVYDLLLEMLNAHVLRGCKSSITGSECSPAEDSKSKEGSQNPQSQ

CNC(=O)c1ccc(N2C(=S)N(c3ccc(C#N)c(C(F)(F)F)c3)C(=O)C2(C)C)cc1F [enzalutamide]
activation of androgen responsive luciferase reporter [1]: inhibited activation of the luciferase construct in a dose dependent manner
binding to ERα (ERα): did not significantly bind
decrease in AR nuclear localization in tumors (MCF7-TGL cells; DHT pellet, chow 50 mg/kg): 92.5%
increase in apoptotic cells (TUNEL staining) (MCF7-TGL cells; DHT pellet, chow 50 mg/kg): 50%
decrease in luminescence as compared to the DHT group (MCF7-TGL cells; DHT pellet, chow containing 50 mg/kg enzalutamide, day 19, IVIS): 83.2%
tumor burden (MCF7-TGL cells; DHT pellet, enzalutamide by oral gavage): decreased in a dose dependent manner
apoptosis under E2-stimulated growth conditions (MCF7-TGL cells; E2 pellet): did not induce apoptosis
decrease in whole body luminescence (MCF7-TGL cells; [2]): 70.3%
binding to ERβ (ERβ): did not significantly bind
E2-induced upregulation of PR and SDF-1 mRNA (PR, SDF-1): inhibited

CC/C(=C(\c1ccccc1)c1ccc(OCCN(C)C)cc1)c1ccccc1 [tamoxifen]
mean time to failure (breast cancer; AR:ER<1.3): 45+/−2.3 months
median time to failure (breast cancer; AR:ER<1.3): > 120 months
median time to failure (breast cancer; AR:ER>=1.3): 30+/−2 months
mean time to failure (breast cancer; higher AR:ER ratio group (cut point 1.3)): 29+/−4.3 months
decrease in cell proliferation compared to the E2 group (BrdU incorporation) (MCF7-TGL cells; [2]): 46.4%
decrease in whole body luminescence (MCF7-TGL cells; [2]): 59.9%
